Assay results as given in US7411002B2, “Polycationic sulfonamides and use thereof” (priority 2006, dated 2008).
Where two headings read alike, the source gives them in different places.

How the values were obtained:
[1] = test system: LPS-induced NF-κB induction in human embryonic kidney 293 cells cotransfected with TLR4, CD14 and MD2; assay: Inhibition of LPS induction of NF-κB (seAP reporter) in HEK 293 cells cotransfected with TLR4, CD14 and MD2; assay type: cell-based; conditions: for IC50: inhibition of LPS-induced NF-κB induction, HEK 293 TLR4/CD14/MD2 reporter cells, read-out: NFκβ inhibition IC50 value; for activity in words (LPS binding / cell-based cytokine inhibition, comment on Table F): qualitative comparison with spermine-sulfonamide counterparts
Text: Assessment of Inhibition of Cytokine Induction (NF-κB): The inhibition of induction of NF-κB (a key transcripitional activator of the innate immune system, leading to uncontrolled cytokine release^72,73 which ultimately leads to multiple organ failure and the shock syndrome) is quantified using human embryonic kidney 293 cells cotransfected with TLR4 (LPS receptor), CD14 and MD2 (co-receptors), available from InvivoGen, Inc. (HEK-Bluetm, San Diego, Calif.), as per protocols provided by the vendor. Stable expression of secreted alkaline phosphatase (seAP) under control of NF-κB/AP-1 promoters is inducible by LPS, and extracellulare seAP in the supernatant is proportional to NF-κB induction. seAP is assayed spectrophotometrically using an alkaline phosphatase-specific chromogen at 620 nm using a rapid-throughput, automated protocol employing a Bio-Tek P2000 liquid handler. Results showing the ability of polycationic sulfonamide compounds to inhibit the induction of NF-κB by LPS are shown in Tables A-F.

[2] = test system: LPS-induced nitric oxide production in murine macrophage J774A.1 cells; assay: NO inhibition (Griess nitrite assay) in LPS-stimulated murine macrophage J774A.1 cells; assay type: cell-based; conditions: Mus musculus, J774.A1, 10 ng/ml LPS, 16 h
Experimental: Assessment of neutralization of LPS toxicity: NO inhibition activity. Nitric oxide production is measured as total nitrite in murine macrophage J774A.1 cells using the Griess assay^70 as described previously.^71 J774A.1 cells are plated at ˜10^5/ml in a volume of 40 μl/well, in 384-well, flat-bottomed, cell culture treated microtiter plates and subsequently stimulated with 10 ng/ml lipopolysaccharide (LPS). Concurrent to LPS stimulation, serially diluted concentrations of test compounds are added to the cell medium and left to incubate for 16 h. Polymyxin B is used as reference compound in each plate. Positive-(LPS stimulation only) and negative-controls (J774A.1 medium only) are included in each experiment. Nitrite concentrations are measured by adding 40 μl of supernatant to equal volumes of Griess reagents (50 μl/well; 0.1% NED solution in ddH2O and 1% sulfanilamide, 5% phosphoric acid solution in ddH2O) and incubating for 15 minutes at room temperature in the dark. Absorbance at 535 nm is measured using a Molecular Devices Spectramax M2 multifunction plate reader (Sunnyvale, Calif.). Nitrite concentrations are interpolated from standard curves obtained from serially diluted sodium nitrite standards. IC50 values are determined for compounds that neutralize LPS inhibit NO production in a dose-dependent manner (Tables A-F). Results in this assay parallel those in the binding assay.

[3] = Rapid-throughput BODIPY-TR cadaverine (BC) fluorescence displacement assay for binding affinity to LPS; conditions: half-maximal effective displacement of BODIPY-TR cadaverine probe from LPS; 50 mM Tris buffer, pH 7.4; read-out: Binding affinity (BC displacement) ED50 value
Experimental: Rapid-throughput Fluorescence Displacement Assay for quantifying binding affinities to LPS. […] Polymyxin B (PMB), a peptide antibiotic known to bind and neutralize LPS^65 serves as the positive control and reference compound for every plate, enabling the quantitative assessment of repeatability and reproducibility (CV and Z′ factors) for the assay. Automated liquid handling is performed on a Precision 2000 automated microplate pipetting system, programmed using the Precision Power software, Bio-Tek Instruments Inc., VT, USA. Results are reported as half-maximal effective displacement of probe (ED50) (Tables A-F). In all experiments, Polymyxin B (PMB), a decapeptide antibiotic, known to bind and neutralize LPS,^66-69 is used as a reference compound.

Compound | IC50 ([1]; Homo sapiens, HEK293) [µM] | IC50 [2] [µM] | EC50 [3] [µM] | activity in words (LPS binding / cell-based cytokine inhibition, comment on Table F) [1] | IC50 [1] [µM]
CCCCCCCCS(=O)(=O)NCCCNCCCCNCCCN [MQTS 2351, N^1-Octanylsulfonyl-1,14-diamino-5,10-diazabutadecane] | 33.3 | 1.44 | 6.64 |  | 
CCCCCCCCCCCCS(=O)(=O)NCCCNCCCCNCCCN [MQTS 2357, N^1-Dodecanylsulfonyl-1,14-diamino-5,10-diazabutadecane] | 0.41 | 1.34 | 2.69 |  | 
CCCCCCCCCCCCCCCCS(=O)(=O)N(CCCN)CCCCNCCCN [MQTS 2363] | 2.68 | 13.7 | 45.6 | greatly diminished activity | 
CCCCCCCCCCCCCCCCS(=O)(=O)NCCCCCCCCCCCCN [MQTS 2369] | 200 |  |  | much lower activities | 
CCCCCCCCCCCCCCCCS(=O)(=O)NCCCOCCCCOCCCN [MQTS 2370] | 22.4 | 30.9 | > 5000 | much lower activities | 
CCCCCCCCCCS(=O)(=O)NCCCNCCCCNCCCN [MQTS 2377, N^1-Decanylsulfonyl-1,14-diamino-5,10-diazabutadecane] | 0.5 | 4.42 | 3.7 |  | 
CCCCCCCCCCCCCCCCCCS(=O)(=O)NCCCNCCCCNCCCN [MQTS 2378] | 0.36 | 0.48 | 6.01 |  | 
CCCCCCCCS(=O)(=O)NCCCNCCCNCCCCNCCCN [MQTS 2379, N^1-Octanylsulfonyl-1,18-diamino-5,9,14-triazaoctadecane] | 0.816 | 6.47 | 2.84 |  | 
CCCCCCCCCCCCCCCCCCS(=O)(=O)NCCCNCCCNCCCCNCCCN [MQTS 2380, N^1-Octadecanylsulfonyl-1,18-diamino-5,9,14-triazaoctadecane] | 1.06 | 0.23 | 4.45 |  | 
CCCCCCCCCCS(=O)(=O)NCCCNCCCNCCCCNCCCN [MQTS 2381] | 0.278 | 1.09 | 2.89 |  | 
CCCCCCCCCCCCS(=O)(=O)NCCCNCCCNCCCCNCCCN [MQTS 2382, N^1-Dodecanylsulfonyl-1,18-diamino-5,9,14-triazaoctadecane] | 0.19 | 0.39 | 2.92 |  | 
CCCCCCCCCCCCS(=O)(=O)NCCCN(CCCNCCCNCCCCNCCCN)CCCNS(=O)(=O)CCCCCCCCCCCC [MQTS 2390, N^1-Bis[N-dodecanylsulfonyl-3-aminopropyl]-1,18-diamino-5,9,14-triazaoctadecane] | 16.4 | 0.51 | 6.82 |  | 
CCCCCCCCCCCCCCCCS(=O)(=O)NCCCN(CCCNCCCNCCCCNCCCN)CCCNS(=O)(=O)CCCCCCCCCCCCCCCC [MQTS 2391] | 2.68 | 5.2 | 9.31 |  | 
CCCCCCCCCCCCCCCCCCS(=O)(=O)NCCCN(CCCNCCCCNCCCN)CCCNS(=O)(=O)CCCCCCCCCCCCCCCCCC [MQTS 2394, N^1-Bis[N-octadecanylsulfonyl-3-aminopropyl]-1,14-diamino-5,10-diazabutadecane] | 64 | 2330 | 28.3 |  | 
CCCCCCCCCCCCCCCCS(=O)(=O)NCCCN(CCCNCCCCNCCCN)CCCNS(=O)(=O)CCCCCCCCCCCCCCCC [MQTS 2396] | 4.85 | 15.1 | 26.4 |  | 
CCCCCCCCCCCCCCCCCCS(=O)(=O)NCCCNCCCCNCCCCNCCCCNCCCNS(=O)(=O)CCCCCCCCCCCCCCCCCC [MQTS 2401, N^1,N^14-Bis[N-octadecanylsulfonyl-3-aminopropyl]-1,14-diamino-5,10-diazabutadecane] |  |  | > 5000 |  | 6.49
CCCCCCCCS(=O)(=O)NCCCN(CCCNCCCCNCCCN)CCCNS(=O)(=O)CCCCCCCC [MQTS 2406, N^1-Bis[N-octanylsulfonyl-3-aminopropyl]-1,14-diamino-5,10-diazabutadecane] | 0.669 |  | 2.17 |  | 

Compound | IC50 ([1]; Homo sapiens, HEK293) [µM] | IC50 [2] [µM] | EC50 [3] [µM] | activity in words (LPS binding / cell-based cytokine inhibition, comment on Table F) [1] | IC50 [1] [µM]
CCCCCCCCCCCCCCCCS(=O)(=O)NCCCN(CCCN)CCCN [MQTS 2409] | 9.19 |  | 12.3 |  | 
CCCCCCCCCCCCCCCCS(=O)(=O)NCCN(CCN)CCN [MQTS 2410] | 0.379 |  | 3.54 |  | 
CCCCCCCCS(=O)(=O)NCCNCCCNCCN [MQTS 2411] | 13.8 |  | 10.6 |  | 
CCCCCCCCCCCCS(=O)(=O)NCCNCCCNCCN [MQTS 2412] | 0.686 |  | 4.77 |  | 
CCCCCCCCS(=O)(=O)NCCCNCCCNCCCN [MQTS 2413] | 5.56 |  | 6.7 |  | 
CCCCCCCCCCCCS(=O)(=O)NCCCNCCCNCCCN [MQTS 2414] | 0.363 |  | 4.27 |  | 
CCCCCCCCS(=O)(=O)NCCCNC/C=C/CNCCCN [MQTS 2415] | 12.7 |  | 12.5 |  | 
CCCCCCCCCCCCS(=O)(=O)NCCCNC/C=C/CNCCCN [MQTS 2416] | 0.522 |  | 3.83 | active | 
CCCCCCCCCCS(=O)(=O)NCCCN(CCCNCCCNCCCCNCCCN)CCCNS(=O)(=O)CCCCCCCCCC [MQTS 2417, N^1-Bis[N-decanylsulfonyl-3-aminopropyl]-1,18-diamino-5,9,14-triazaoctadecane] | 2.2 | 0.43 | 1.16 |  | 
CCCCCCCC(=O)NCCCN(CCCNCCCNCCCCNCCCN)CCCNC(=O)CCCCCCC [MQTS 2418] | 3.17 | 2.48 | 1 | greatly diminished activity | 
CCCCCCCCCCS(=O)(=O)NCCCN(CCCNCCCCNCCCN)CCCNS(=O)(=O)CCCCCCCCCC [MQTS 2419, N^1-Bis[N-decanylsulfonyl-3-aminopropyl]-1,14-diamino-5,10-diazabutadecane] | 5.17 | 1.1 | 2.4 |  | 
CCCCCCCCCCCCS(=O)(=O)NCCCN(CCCNCCCCNCCCN)CCCNS(=O)(=O)CCCCCCCCCCCC [MQTS 2420, N^1-Bis[N-dodecanylsulfonyl-3-aminopropyl]-1,14-diamino-5,10-diazabutadecane] | 13.2 | 2.27 | 3.98 |  | 
CCCCCCCC(=O)NCCCN(CCCNCCCCNCCCN)CCCNC(=O)CCCCCCC [MQTS 2421] | 9.76 | 9.02 | 1.32 | greatly diminished activity | 
N^1,N^14-Bis[N-decanylsulfonyl-3-aminopropyl]-1,14-diamino-5,10-diazabutadecane [MQTS 2398] |  |  | 13.5 |  | 4.2
N^1,N^14-Bis[N-dodecanylsulfonyl-3-aminopropyl]-1,14-diamino-5,10-diazabutadecane [MQTS 2399] |  |  | 55.2 |  | 10.3
N^1,N^14-Bis[N-hexadecanylsulfonyl-3-aminopropyl]-1,14-diamino-5,10-diazabutadecane [MQTS 2400] |  |  | 133 |  | 11.7
N^1,N^14-Bis[N-octanylsulfonyl-3-aminopropyl]-1,14-diamino-5,10-diazabutadecane [MQTS 2397] |  |  | 2.6 |  | 0.607
